{
  "source": "patent US20140316796A1",
  "about": "“SYSTEMS, METHODS, AND COMPUTER-READABLE MEDIA FOR LIMITED DISTRIBUTION OF SPECIALTY DRUG USING A COMPUTER HUB OPERATING AT A SINGLE ACCESS POINT” (Jazz Pharmaceuticals, priority 2013, published 2014)",
  "origin": "cited, not measured here",
  "key": {"[1]": {"settings": "in vivo"}, "[2]": {"settings": "pH 4"}},
  "data": [
    {"smiles": "CSCC[C@@H]1NC(=O)[C@H](CC(C)C)NC(=O)[C@H](CCCNC(=N)N)NC(=O)[C@H](CO)NC(=O)[C@@H]2CSSC[C@@H]3NC(=O)[C@H](CO)NC(=O)CNC(=O)[C@H]([C@@H](C)O)NC(=O)[C@H](CSSC[C@H](N)C(=O)N[C@@H](CCCCN)C(=O)NCC(=O)N[C@@H](CCCCN)C(=O)NCC(=O)N[C@@H](C)C(=O)N[C@@H](CCCCN)C(=O)N2)NC(=O)[C@H](CSSC[C@@H](C(N)=O)NC(=O)[C@H](CCCCN)NC(=O)CNC(=O)[C@H](CO)NC(=O)[C@H](CCCNC(=N)N)NC3=O)NC(=O)[C@H](CC(=O)O)NC(=O)[C@H](Cc2ccc(O)cc2)NC1=O", "note": "[ziconotide]", "values": [
      {"measurement": "addiction potential", "setting": "[1]", "result": "does not have addiction potential"},
      {"measurement": "development of tolerance", "setting": "[1]", "result": "tolerance does not appear to develop"},
      {"measurement": "effect on respiratory function", "setting": "[1]", "result": "does not suppress respiratory function"},
      {"measurement": "stabilisation by methionine-containing buffer", "setting": "[2]", "result": "effective in stabilizing ziconotide"}
    ]}
  ]
}
